Test results taken from US6875761B2 (Eisai Co., Ltd., priority 1997, dated 2005).
Counter-ions that a name gives are not always drawn.

melting point	SMILES
222 °C (dec.)	CCN1CCN(c2nc(-c3ccc(OC)cc3)cc3ccncc23)CC1 (as salt: hydrochloride) [Example 428, 1-(4-ethylpiperazin-1-yl)-3-(4-methoxyphenyl)-7-azaisoquinoline]
204 to 205 °C	CCN1CCN(c2nc(-c3ccc(CCCO)nc3)cc3ccsc23)CC1 (as salt: hydrochloride) [Example 429, 7-(4-ethylpiperazin-1yl)-5-[2-(3-hydroxypropyl)pyridin-5-yl]thieno[2,3-c]pyridine hydrochloride]
98 to 99 °C	CCN1CCN(c2nc(/C=C/c3cccc(OCCO)c3)cc3ccsc23)CC1 (as salt: hydrochloride) [Example 430, 7-(4-ethylpiperazin-1-yl)-5-[3-(2-hydroxyethoxy)styryl]thieno [2,3-c]pyridine hydrochloride]
143 to 145 °C	CCN1CCN(c2nc(/C=C/c3ccc(OCCO)cc3)cc3ccsc23)CC1 (as salt: hydrochloride) [Example 431, 7-(4-ethylpiperazin-1-yl)-5-[4-(2-hydroxyethoxy)styryl]thieno[2,3-c]pyridine hydrochloride]
112 to 113 °C	CCN1CCN(c2nc(-c3ccc(CCCO)cc3)cc3ccsc23)CC1 (as salt: hydrochloride) [Example 432, 7-(4-ethylpiperazin-1-yl)-5-[4-(3-hydroxypropyl)phenyl]thieno[2,3-c]pyridine hydrochloride]
114 to 115 °C	CCN1CCN(c2nc(-c3ccc(CCCO)c(OC)c3)cc3ccsc23)CC1 (as salt: hydrochloride) [Example 433, 7-(4-ethylpiperazin-1-yl)-5-[4-(3-hydroxypropyl)-3-methoxyphenyl]thieno[2,3-c]-pyridine hydrochloride]
126 to 127 °C	CCN1CCN(c2nc(-c3ccc(OCCCO)cc3)cc3ccsc23)CC1 (as salt: hydrochloride) [Example 434, 7-(4-ethylpiperazin-1-yl)-5-[4-(3-hydroxypropoxy)phenyl]thieno[2,3-c]pyridine dihydrochloride]
126 to 127 °C	CCN1CCN(c2nc(-c3ccc(OC[C@@H](C)O)cc3)cc3ccsc23)CC1 (as salt: hydrochloride) [Example 435, 7-(4-ethylpiperazin-1-yl)-5-[4-(2-hydroxypropoxy)phenyl]thieno[2,3-c]pyridine dihydrochloride]
66 to 67 °C	CCN1CCN(c2nc(-c3ccc(CC(C)O)cc3)cc3ccsc23)CC1 (centres unmarked) (as salt: hydrochloride) [Example 436, 7-(4-ethylpiperazin-1-yl)-5-[4-(2-hydroxypropyl)phenyl]thieno[2,3-c]pyridine dihydrochloride]
126 to 127 °C	CCN1CCN(c2nc(-c3ccc(O[C@@H](C)CO)cc3)cc3ccsc23)CC1 (as salt: hydrochloride) [Example 438, 7-(4-ethylpiperazin-1-yl)-5-[4-(1-methyl-2-hydroxyethoxy)phenyl]thieno[2,3-c]pyridine dihydrochloride]
122 to 133.5 °C	CCN1CCN(c2nc(-c3ccc(CCC(C)(C)O)cc3)cc3ccsc23)CC1 (as salt: hydrochloride) [Example 439, 7-(4-ethylpiperazin-1-yl)-5-[4-(3-hydroxy-3-methylbutyl)phenyl]thieno[2,3-c]pyridine dihydrochloride]
110.5 to 112 °C	CCN1CCN(c2nc(-c3ccc(CCC(C)O)cc3)cc3ccsc23)CC1 (centres unmarked) (as salt: hydrochloride) [Example 440, 7-(4-ethylpiperazin-1-yl)-5-[4-(3-hydroxybutyl)phenyl]thieno[2,3-c]pyridine dihydrochloride]
108 to 110 °C	CCN1CCN(c2nc(-c3ccc(CC(C)CO)cc3)cc3ccsc23)CC1 (centres unmarked) (as salt: hydrochloride) [Example 441, 7-(4-ethylpiperazin-1-yl)-5-[4-(3-hydroxy-2-methylpropyl)phenyl]thieno[2,3-c]pyridine dihydrochloride]
113 to 114 °C	CCN1CCN(c2nc(-c3ccc(CC(C)(C)CO)cc3)cc3ccsc23)CC1 (as salt: hydrochloride) [Example 442, 7-(4-ethylpiperazin-1-yl)-5-[4-(3-hydroxy-2,2-dimethylpropyl)phenyl]thieno[2,3-c]pyridine dihydrochloride]
98.5 to 99.5 °C	CCN1CCN(c2nc(-c3ccc(SC[C@@H](C)O)cc3)cc3ccsc23)CC1 (as salt: hydrochloride) [Example 444, 7-(4-ethylpiperazin-1-yl)-5-[4-(2-hydroxypropylthio)phenyl]thieno[2,3-c]pyridine dihydrochloride]
112 to 114 °C	CCCC(O)c1ccc(-c2cc3ccsc3c(N3CCN(CC)CC3)n2)cc1 (centres unmarked) (as salt: hydrochloride) [Example 446, 7-(4-ethylpiperazin-1-yl)-5-[4-(1-hydroxybutyl)phenyl]thieno[2,3-c]pyridine dihydrochloride]
142 to 143 °C	CCNC(=O)c1ccc(-c2cc3ccsc3c(N3CCN(CC)CC3)n2)cc1 (as salt: hydrochloride) [Example 448, 7-(4-ethylpiperazin-1-yl)-5-[4-(N-ethylcarbamoyl)phenyl]thieno[2,3-c]pyridine dihydrochloride]
136.5 to 138 °C	CCCNC(=O)c1ccc(-c2cc3ccsc3c(N3CCN(CC)CC3)n2)cc1 (as salt: hydrochloride) [Example 449, 7-(4-ethylpiperazin-1-yl)-5-[4-(N-propylcarbamoyl)phenyl]thieno[2,3-c]pyridine dihydrochloride]

melting point	SMILES
230 to 232 °C (dec.)	CCN1CCN(c2nc(-c3ccc(S(=O)(=O)CC)cc3)cc3ccsc23)CC1 (as salt: hydrochloride) [Example 450, 7-(4-ethylpiperazin-1-yl)-5-(4-ethanesulfonylphenyl)thieno[2,3-c]pyridine dihydrochloride]
127.5 to 128 °C	CCCCNC(=O)c1ccc(-c2cc3ccsc3c(N3CCN(CC)CC3)n2)cc1 (as salt: hydrochloride) [Example 452, 7-(4-ethylpiperazin-1-yl)-5-[4-(N-butylcarbamoyl)phenyl]thieno[2,3-c]pyridine dihydrochloride]
148 to 149 °C	CCN1CCN(c2nc(-c3ccc(C(=O)NC4CCCC4)cc3)cc3ccsc23)CC1 (as salt: hydrochloride) [Example 453, 7-(4-ethylpiperazin-1-yl)-5-[4-(N-cyclopentylcarbamoyl)phenyl]thieno[2,3-c]pyridine dihydrochloride]
138 to 140 °C (dec.)	CCN1CCN(c2nc(-c3ccc4c(c3)CC(C)(CO)O4)cc3ccsc23)CC1 (centres unmarked) (as salt: hydrochloride) [Example 456, dihydrochloride]
127.5 to 129 °C	CCN1CCN(c2nc(-c3ccc(C(O)C4CCCCC4)cc3)cc3ccsc23)CC1 (centres unmarked) (as salt: hydrochloride) [Example 457, 7-(4-Ethylpiperazin-1-yl)-5-[4-(cyclohexylhydroxymethyl)phenyl]thieno[2,3-c]pyridine dihydrochloride]
128 to 129 °C	CCN1CCN(c2nc(-c3ccc(C(O)C4CCCC4)cc3)cc3ccsc23)CC1 (centres unmarked) (as salt: hydrochloride) [Example 458, 7-(4-ethylpiperazin-1-yl)-5-[4-(cyclopentylhydroxymethyl)phenyl]thieno[2,3-c]pyridine dihydrochloride]
113 to 115 °C	CCN1CCN(c2nc(-c3ccc(OC)cc3)cc3ccsc23)CC1 (as salt: hydrochloride) [Example 459, 7-(4-ethylpiperazin-1-yl)-5-(4-methoxyphenyl)thieno[2,3-c]pyridine dihydrochloride]
102 to 104 °C	CCN1CCN(c2nc(-c3ccc(OCCCO)cc3)cc3sccc23)CC1 (as salt: hydrochloride) [Example 462, 4-(4-ethylpiperazin-1-yl)-6-[4-(3-hydroxypropoxy)phenyl]thieno[3,2-c]pyridine dihydrochloride]
127 to 128 °C	CCN1CCN(c2nc(-c3ccc(OC)cc3)cc3ccoc23)CC1 (as salt: hydrochloride) [Example 467, 7-(4-ethylpiperazin-1-yl)-5-(4-methoxyphenyl)furo[2,3-c]pyridine dihydrochloride]
179 to 181 °C	CCN1CCN(c2nc(C(C)(O)c3ccc(OC)cc3)cc3ccccc23)CC1 (centres unmarked) (as salt: oxalate)
136 to 139 °C	CCN1CCN(c2nc(C3=CCCc4c(OC)cccc43)cc3ccccc23)CC1 (as salt: oxalate)
150 to 153 °C	CCN1CCN(c2nc(C3=CCCc4ccc(OC)cc43)cc3ccccc23)CC1 (as salt: oxalate)
133 to 136 °C	CCN1CCN(c2nc(C3CCCc4c(OC)cccc43)cc3ccccc23)CC1 (centres unmarked) (as salt: oxalate)
170 to 173 °C	CCN1CCN(c2nc(C3CCCc4cc(OC)ccc43)cc3ccccc23)CC1 (centres unmarked) (as salt: oxalate)
110 to 112 °C	CCN1CCN(c2nc(C3CCCc4ccc(OC)cc43)cc3ccccc23)CC1 (centres unmarked) (as salt: oxalate)
172 to 174 °C	CCNS(=O)(=O)c1ccc(-c2cc3ccccc3c(N3CCN(CCO)CC3)n2)cc1 (as salt: oxalate)
170 to 172 °C (dec.)	CCN1CCN(c2nc(-c3ccc(OC)cc3)cc3occc23)CC1 (as salt: oxalate)

SMILES	melting point
CCN1CCN(c2nc(-c3ccc(C(C)(C)CCO)cc3)cc3ccsc23)CC1 (as salt: hydrochloride) [Example 443, 7-(4-ethylpiperazin-1-yl)-5-[4-(3-hydroxy-1,1-dimethylpropyl)phenyl]thieno[2,3-c]pyridine dihydrochloride]	125.5 to 127.5 °C
CCN1CCN(c2nc(-c3ccc(S(C)(=O)=O)cc3)cc3ccsc23)CC1 (as salt: hydrochloride) [Example 445, 7-(4-ethylpiperazin-1-yl)-5-(4-methanesulfonylphenyl)thieno)[2,3-c]pyridine dihydrochloride]	222.5 to 225 °C (dec.)
CCN1CCN(c2nc(-c3ccc(CCCO)cc3)cc3sccc23)CC1 (as salt: hydrochloride) [Example 465, 4-(4-ethylpiperazin-1-yl)-6-[4-(3-hydroxypropy)phenyl]thieno[3,2-c]pyridine dihydrochloride]	125.5 to 126.5 °C
